# In patent publication US10683216B2, “Selective adsorbent fabric for water purification” (Chemica Technologies, Inc., priority 2013, dated 2020):
# Legend:
# [1] = Kinetics of adsorption of organic toxins to ACF-H in Standard Synthetic Test Water; conditions: STW, pH 6.9~7.0; for ACF-H 50% (estimated time to achieve designated toxin removal): 50% removal; for ACF-H >95% (estimated time to achieve designated toxin removal): >95% removal
# [2] = Kinetics of adsorption of organic toxins to ACF-SBX in Standard Synthetic Test Water; conditions: STW, pH 6.9~7.0; for ACF-SBX 50% (estimated time to achieve designated toxin removal): 50% removal; for ACF-SBX >95% (estimated time to achieve designated toxin removal): >95% removal
# [3] = Kinetics of adsorption of organic toxins to ACF-OH in Standard Synthetic Test Water; conditions: STW, pH 6.9~7.0; for ACF-OH 50% (estimated time to achieve designated toxin removal): 50% removal; for ACF-OH removal reached, in brackets in the >95% column: >95% not reached; for ACF-OH >95% (estimated time to achieve designated toxin removal): >95% removal
# [4] = Log P (logarithm of measured partition coefficient)
SMILES,ACF-H 50% (estimated time to achieve designated toxin removal) [1],ACF-H >95% (estimated time to achieve designated toxin removal) [1] [min],ACF-SBX 50% (estimated time to achieve designated toxin removal) [2] [min],ACF-SBX >95% (estimated time to achieve designated toxin removal) [2] [min],ACF-OH 50% (estimated time to achieve designated toxin removal) [3] [min],"ACF-OH removal reached, in brackets in the >95% column [3]",logP (physchem),ACF-OH >95% (estimated time to achieve designated toxin removal) [3] [min],Log P ([4]; logarithm of measured partition coefficient),"ACF-H removal reached, in brackets in the >95% column ([1]; >95% not reached)",logP [4]
Cc1ccc(S(=O)(=O)[N-]Cl)cc1.[Na+] [chloramine-T],3.3 min,25.0,3.3,25.0,50.0,(82%),,,,,
"Brc1c(Br)c(Br)c(Oc2c(Br)c(Br)c(Br)c(Br)c2Br)c(Br)c1Br [deca-BDE, decabromodiphenyl ether]",0.4 min,,0.5,,,,9.97,,,,
CCCCCCCCCc1ccc(O)cc1 [4-nonylphenol],2.0 min,30.0,5.0,45.0,57.0,(73%),5.76,,,,
Clc1ccccc1Cl [o-dichlorobenzene],1.5 min,3.0,0.8,3.0,1.5,,3.38,3.0,,,
Clc1ccc(Cl)cc1 [p-dichlorobenzene],1.0 min,2.0,1.0,2.0,1.0,,,2.0,3.44,,
"CCN(CC)N=O [NDEA, N-nitrosodiethylamine]",3.8 min,,4.6,60.0,30.0,(59%),0.48,,,(93%),
"Oc1ccc(Cl)cc1Cl [2,4-dichlorophenol]",1.5 min,30.0,2.3,30.0,2.6,(92%),3.17,,,,
CCc1ccccc1 [ethylbenzene],0.3 min,,0.3,,0.3,,,0.5,,,
CN(C)C(=O)Nc1ccc(Cl)c(Cl)c1 [diuron],3.0 min,15.0,3.0,15.0,30.0,,,55.0,,,
CCNc1nc(Cl)nc(NC(C)C)n1 [atrazine],2.0 min,20.0,1.6,10.0,6.0,(90%),2.61,,,,
O=[N+]([O-])c1ccc(O)cc1 [4-nitrophenol],0.8 min,20.0,1.5,20.0,5.0,,,60.0,,,
C[C@]12CC[C@@H]3c4ccc(O)cc4CC[C@H]3[C@@H]1CC[C@@H]2O [17β-estradiol],0.5 min,10.0,0.5,10.0,0.5,,,50.0,,,
O=c1[nH]c(=O)c2[nH]c(=O)[nH]c2[nH]1 [uric acid],3.0 min,30.0,3.0,30.0,15.0,,,60.0,,,-2.92
Oc1cc(Cl)ccc1Oc1ccc(Cl)cc1Cl [triclosan],2.5 min,55.0,1.7,46.7,26.0,(91%),,,,,4.53
c1ccc2cc3ccccc3cc2c1 [anthracene],^♦0.5 min,53.0,0.4,12.5,0.4,,,30.0,,,
CC(C)(c1ccc(O)cc1)c1ccc(O)cc1 [bisphenol A],5.0 min,30.0,4.0,30.0,45.0,(70%),3.32,,,,
CCOC(=O)c1ccccc1C(=O)OCC [diethyl phthalate],5.0 min,50.0,3.5,25.0,60.0,(69%),2.42,,,,
Clc1ccccc1 [chlorobenzene],0.3 min,2.0,0.3,2.0,0.3,,,2.0,,,
"CCCCC(CC)COC(=O)c1ccccc1C(=O)OCC(CC)CCCC (stereo not shown) [DEHP, bis(2-ethylhexyl)phthalate]",20.0 min,80.0,3.8,20.0,43.3,(92%),,,,,7.8
Cc1ccc(O)cc1 [p-cresol],,,,,,,1.97,,,,
